Patent publication US20230175032A1, “EFFICIENT SYNTHESIS OF OMEGA-GLYCOSIDES AND ALKYL GLYCOSIDES” (AMPHISTAR, priority 2020, published 2023)

Test system: S. bombicola Δcyp52M1Δfao1 strain
Experiment: shake flask cultivation fed with primary alcohols, viability as colony forming units
Format: cell-based, Starmerella bombicola
Details: alcohol added after 48 h of cultivation; in contrast to all other fed substrates (FIG. 8A)
Experimental: Production experiments using S. bombicola were performed using the production medium described by Lang et al., (2000). For shake flask experiments, 5 mL tube cultures were set up 24 h (30° C.), before transferring to shake flasks (4% inoculation). Production experiments were executed with feeding of fatty alcohols: oleyl alcohol, stearyl alcohol, lauryl alcohol, myristyl alcohol or cetyl alcohol which were added after 48 h of cultivation. The Δcyp52M1Δfao1 strain was also assessed without addition of the hydrophobic alcohol. For every production experiment, cultivation was stopped when glucose was depleted from the medium. […]
Optical density (OD) of cultures was measured at 600 nm using the Jasco V 630 Bio spectrophotometer (Jasco Europe) of 1 mL samples diluted with physiological solution (9 g/L NaCl). The viability of yeast cells in cultivation experiments was assessed by determining colony forming units (CFUs) which were expressed as the average logarithm of CFUs per culture volume as log(CFU/mL) (Saerens, Saey, et al., 2011). Alternatively, Cell Dry Weight (CDW) was determined by centrifuging 1 mL fermentation samples at 14000 rpm for 5 min in tared Eppendorf tubes, and subsequently washing the cell pellets twice with 1 mL physiological solution. […] The CDW (g/L) was calculated after subtraction of the empty weight of the Eppendorf tube.

## CCCCCCCCCCCCO [lauryl alcohol]
  CFUs: significant drop
